Experimental data: patent publication US8889876B2, “Histone deacetylase inhibitors and uses thereof” (Jiangsu Hengyi Pharmaceutical Co., Ltd., priority 2008, dated 2014)
In brackets after ≈: the same amount, converted by molar mass.

Tests used:
[1] = system: K562: human chronic myeloid leukemia cell strain; assay: MTT cytotoxicity to tumor cell strains, K562; assay type: cell-based; conditions: for IC50: Homo sapiens, read-out: Cell activity (IC50, μg/ml) K562
Method: (§1) The cytotoxicity of samples to tumor cell strains is determined through MTT.

[2] = system: A549 (human lung adenocarcinoma cells); assay: MTT cytotoxicity to tumor cell strains, A549; assay type: cell-based; conditions: for IC50: Homo sapiens, read-out: Cell activity (IC50, μg/ml) A549
Method: as §1

[3] = system: histone deacetylase; assay: in vitro inhibition activity on histone deacetylase (rat liver homogenate, MAL fluorescent substrate); assay type: biochemical, rats; conditions: n = 4, 37° C., 16 hours
Method: A 96-well plate (black) for determining […] is made by Costar Company of U.S. The histone deacetylase is obtained by homogenization of liver of rats. The histone deacetylase reacts with small molecular fluorescent substrate MAL such that the substrate MAL is deacetylated to become ML.
The compound to be detected is dissolved with 200 μL of DMSO. The stock solution of the compound to be detected is diluted with PBS to a concentration of the working solution. The histone deacetylase, the MAL fluorescent substrate and the compound to be detected are mixed in a water bath at 37° C. and reacted 16 hours. The final concentration of the compound to be detected is: MS275 and its similar compound: 10, 100 μmol/.
The reaction solution is extracted with ethyl acetate. The extract is pumped in vacuum and thereto added 110 μL of methanol (40%). Taking 50 μL/well to a 96-well plate and making a fluorescent detection at 325/390 nm.
The negative control wherein histone deacetylase is not added to the reaction is 100% inhibition. The control that only contains histone deacetylase without any inhibitor is the background (0% inhibition). The inhibition rate of the sample to be detected=(the detected fluorescent value−the background)/(the fluorescent value of the negative control−background)×100%
The inhibition rate and the standard deviation in the results are the average inhibition percentage and the standard deviation of each parallel well in each dosage group.

[4] = system: Hut 78 (T-cell Leukemia cell); assay: MTT cytotoxicity to tumor cell strains, Hut 78; assay type: cell-based; conditions: Hut 78, MTT; for IC50: Homo sapiens, HuT78, read-out: Cell activity (IC50, μg/ml) Hut 78
Method: as §1

[5] = system: PANC-1 human pancreatic cancer cells; assay: CCK-8 proliferation inhibition, PANC-1; assay type: cell-based
Outline: (§2)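 Inhibition rates were obtained by CCK-8 assay after treating cells with each compound at 100 μM or 10 μM.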

[6] = system: MDA-MB-435s human breast cancer cells; assay: CCK-8 proliferation inhibition, MDA-MB-435s; assay type: cell-based; conditions: CCK-8 method
Outline: as §2

[7] = system: PC-3 human prostate cancer; assay: CCK-8 proliferation inhibition, PC-3; assay type: cell-based; conditions: CCK-8 method
Outline: as §2

[8] = system: Hep3B2.1-7 human liver cancer cells; assay: CCK-8 proliferation inhibition, Hep3B2.1-7; assay type: cell-based; conditions: CCK-8 method
Outline: as §2

[9] = system: Jurkat E6-1 human T-cell lymphoma; assay: CCK-8 proliferation inhibition, Jurkat E6-1; assay type: cell-based
Outline: as §2

[10] = system: A549 human lung cancer cells; assay: CCK-8 proliferation inhibition, A549; assay type: cell-based; conditions: CCK-8 method
Outline: as §2

[11] = system: Colo320 human rectal cancer cells; assay: CCK-8 proliferation inhibition, Colo320; assay type: cell-based; conditions: CCK-8 method
Outline: as §2

[12] = system: K562 human chronic myeloid leukemia cells; assay: CCK-8 proliferation inhibition, K562; assay type: cell-based
Outline: as §2

[13] = system: Hut78 T-cell Leukemia cell; assay: CCK-8 proliferation inhibition, Hut78; assay type: cell-based
Outline: as §2

`O=C(NCc1ccc(C(=O)Nc2cccnc2)cc1)OCc1cccnc1` [V-3, N-(3-pyridyl)-4-[(3-pyridylmethoxyacyl)aminomethyl]benzamide] was tested, and the IC50 [1] was over 100 µg/mL, the IC50 [2] was over 100 µg/mL and the “inhibition rate % average number” value ([3]; dosage 10 μmol/L) was 0.170%. For the same compound, the “inhibition rate % average number” value ([3]; dosage 100 μmol/L) was 0.481% and the IC50 [4] was 38.8 µg/mL (≈ 107 µM).
With `Nc1ccccc1CNC(=O)c1ccc(CNC(=O)OCc2cccnc2)cc1` [V-1, N-(2-aminobenzyl)-4-[(3-pyridylmethoxyacyl)aminomethyl]benzamide] the IC50 [1] was over 100 µg/mL, the IC50 [2] was over 100 µg/mL and the “inhibition rate % average number” value ([3]; dosage 10 μmol/L) was 0.479%. For the same compound, the “inhibition rate % average number” value ([3]; dosage 100 μmol/L) was 0.293% and the IC50 [4] was 12.5 µg/mL (≈ 32 µM).
“N-(2-amino-4-pyridyl)-4-[(2-naphthylmethoxyacyl)aminomethyl]benzamide [V-24]” was tested, and the “PANC-1 (inhibition %)” value ([5]; 10 μM) was 8.0%, the “PANC-1 (inhibition %)” value ([5]; 100 μM) was 7.8% and the “435s(inhibition %)” value ([6]; compound concentration 10 μM) was 49.8%. The “435s(inhibition %)” value ([6]; compound concentration 100 μM) was 50.4%, the “PC-3 (inhibition %)” value ([7]; compound concentration 10 μM) was 5.1% and the “PC-3 (inhibition %)” value ([7]; compound concentration 100 μM) was 3.4%. The “Cell activity (IC50, μg/ml) K562” value [1] was 6.23 µg/mL, the “Hep3B (inhibition %)” value ([8]; compound concentration 10 μM) was 24.8% and the “Hep3B (inhibition %)” value ([8]; compound concentration 100 μM) was 13.5%. The “Cell activity (IC50, μg/ml) A549” value [2] was 7.11 µg/mL, the “Jurkat E6-1 (inhibition %)” value ([9]; 10 μM) was 37.2% and the “Jurkat E6-1 (inhibition %)” value ([9]; 100 μM) was 22.1%. For the same compound, the “A549 (inhibition %)” value ([10]; compound concentration 10 μM) was 48.7%, the “A549 (inhibition %)” value ([10]; compound concentration 100 μM) was 65.7% and the “inhibition rate % average number” value ([3]; dosage 10 μmol/L) was 46.547%. The “inhibition rate % average number” value ([3]; dosage 100 μmol/L) was 70.300%, the “Colo320 (inhibition %)” value ([11]; compound concentration 10 μM) was −2.3% and the “Colo320 (inhibition %)” value ([11]; compound concentration 100 μM) was −17.1%. The “K562 (inhibition %)” value ([12]; 10 μM) was 42.8%, the “K562 (inhibition %)” value ([12]; 100 μM) was 29.7% and the “Hut-78 (inhibition %)” value ([13]; 10 μM) was 26.2%. The “Hut-78 (inhibition %)” value ([13]; 100 μM) was 20.7% and the “Cell activity (IC50, μg/ml) Hut 78” value [4] was 0.30 µg/mL.
Compound `COc1cc(/C=C/C(=O)NCc2ccc(C(=O)Nc3cccnc3N)cc2)cc(OC)c1OC` [V-34, N-(2-amino-3-pyridyl)-4-[(3,4,5-trimethoxycinnamoyl)aminomethyl]benzamide] has an inhibition at 10 µM ([5]; Homo sapiens, PANC-1, 10 μM) of 9.2%, an inhibition at 100 µM ([5]; Homo sapiens, PANC-1, 100 μM) of 4% and an inhibition at 10 µM ([6]; Homo sapiens, MDA-MB-435S, compound concentration 10 μM) of 21.5%. It also gave an inhibition at 100 µM ([6]; Homo sapiens, MDA-MB-435S, compound concentration 100 μM) of 42.9%, an inhibition at 10 µM ([7]; Homo sapiens, compound concentration 10 μM) of 7% and an inhibition at 100 µM ([7]; Homo sapiens, compound concentration 100 μM) of 40.2%. It also gave an IC50 [1] of over 100 µg/mL, an inhibition at 10 µM ([8]; Homo sapiens, Hep3B, compound concentration 10 μM) of 1% and an inhibition at 100 µM ([8]; Homo sapiens, Hep3B, compound concentration 100 μM) of 28.1%. The IC50 [2] was over 100 µg/mL, the inhibition at 10 µM ([9]; Homo sapiens, Jurkat E6.1, 10 μM) was 4.7% and the inhibition at 100 µM ([9]; Homo sapiens, Jurkat E6.1, 100 μM) was 52.7%. The inhibition at 10 µM ([10]; Homo sapiens, A549, compound concentration 10 μM) was -7.4%, the inhibition at 100 µM ([10]; Homo sapiens, A549, compound concentration 100 μM) was 6.2% and the inhibition at 10 µM ([11]; Homo sapiens, COLO 320, compound concentration 10 μM) was 7.3%. The inhibition at 100 µM ([11]; Homo sapiens, COLO 320, compound concentration 100 μM) was 5.9%, the inhibition at 10 µM ([12]; Homo sapiens, K562, 10 μM) was 12.8% and the inhibition at 100 µM ([12]; Homo sapiens, K562, 100 μM) was 61.2%. The inhibition at 10 µM ([13]; Homo sapiens, HuT78, 10 μM, read-out: Hut-78 (inhibition %)) was 9.9%, the inhibition at 100 µM ([13]; Homo sapiens, HuT78, 100 μM, read-out: Hut-78 (inhibition %)) was 53.1% and the IC50 [4] was 68.5 µg/mL (≈ 148 µM).
